Measured values taken from US20090136968A1, “Novel in vitro methods for studying receptors recognizing volatile compounds” (Chemcom S. A., priority 2005, published 2009).

Assays:
[1] = molecular target: T1, mOR-I7 (Mus musculus, UniProt Q9QWU6); assay: cAMP level immunoassay (TROPIX) in the novel assay on HEK 293T overexpressing mOR-I7; format: cell-based; settings: BSA solution incubated with 16 μl of 1 M odorant; 20 minutes incubation
T1 construct: expressed in transfected cells; host or cells: HEK 293T
T1 sequence (Q9QWU6 1-327): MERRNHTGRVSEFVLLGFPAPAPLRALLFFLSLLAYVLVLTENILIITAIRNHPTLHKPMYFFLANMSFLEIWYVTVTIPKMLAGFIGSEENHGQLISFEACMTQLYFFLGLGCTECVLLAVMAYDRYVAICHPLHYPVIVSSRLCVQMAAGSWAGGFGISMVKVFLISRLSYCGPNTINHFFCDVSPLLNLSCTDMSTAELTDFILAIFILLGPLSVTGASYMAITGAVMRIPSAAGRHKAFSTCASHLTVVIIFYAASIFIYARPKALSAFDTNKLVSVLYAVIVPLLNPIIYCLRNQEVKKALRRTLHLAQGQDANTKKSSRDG
Experimental: Similarly to the first step of the fluorescence-based functional assay described above, BP solutions including SA, OBP and/or olfactory mucus (see concentration in the text) were incubated in the presence of odorant in a sealed flask for 16 hours at 4° C. (FIG. 3A). Such odorant-BP complexes were then applied to cultured-cell for 20 minutes at 37° C. cAMP level was then measured using the Tropix kit according to the manufacturer procedures (Applied Biosystem).
As depicted in FIG. 1, binding of odorant molecule to olfactory receptor triggers a cascade of molecular events. In the most commonly accepted pathway, the first second messenger is cAMP synthesized by adenylate cyclase type III. Therefore, a mean to test olfactory receptor activation is to assess variation of cellular cAMP pool after olfactory receptor activation. It is noteworthy that such assay could be performed in parallel to calcium flux assay described above to validate hits obtained during a screening.
Specificity of the novel cell based olfactory functional assay according to the present invention was tested following mOR-I7 activation after injection of these three odorants and two non related odorant, vanilline and piperonyl isobutyrate. Olfactory receptor activation was detected by cellular cAMP pool immunoassay. A solution of BSA was incubated overnight at 4° C.
As discussed above (FIG. 1), activation of olfactory receptor can also be followed through cAMP synthesis. […] Results are expressed as percent of response observed after incubation with 100 μM forskolin, an activator of adenylate cyclases. […] Scheme of the odorant molecules are depicted in FIG. 7E.

[2] = molecular target: T1, mOR-I7; assay: Novel olfactory functional assay (CCBSA), microplate calcium flux (Fluo4, FDSS) on HEK 293T overexpressing mOR-I7; format: cell-based; settings: for hits / potential ligands of mOR-I7 through the 4 screenings / ligands of mOR-I7 in two independent calcium flux screenings of 30 odorants: BSA as carrier; for hits / potential ligands of mOR-I7 through the 4 screenings: calcium flux and cAMP screenings together; for ligands of mOR-I7 in two independent calcium flux screenings of 30 odorants: standardized to 100 μM ATP; for hit / potential ligand of mOR-I7 in screening of 30 odorants: carrier fraction 4 (bOBP and BSA) incubated with 16 μl of 1M odorant, ratio mOR-I7 on Wt, standardized to 1 mM ATP
Experimental: (§1) A solution of BP including SA, OBP and/or olfactory mucus (see concentration in the text) was incubated in the presence of odorant in a sealed flask for 16 hours at 4° C. (FIG. 3A). Such incubated-BP solution was then used as tested complex on olfactory receptor-expressing cells. Prior to incubation with such complex, cells were incubated for 1 hour with 4 μM Fluo4-AM (Molecular Probe) in the presence of 1 mM probenecid, and then rinsed twice with Fluo4-AM free HBSS buffer. After injection of odorant-BP complex on OR expressing cells, calcium flux was followed by measuring fluorescence at 520 nm ([…]) on FDSS, a plate reader from Hamamatsu Photonics K.K. (Japan) at 25° C.
In an attempt to be closer to physiological process of olfaction and thereof to increase specificity and sensitivity of the cell-based assay described above, a novel olfactory functional assay was developed. Most of the time, mammalian smells volatile odorant molecules. However in the cell-based assay described above as in most cell-based assays, odorant molecules were injected into aqueous buffer. Such injection may lead to formation of micelles that can alter efficacy and specificity of ligands. Therefore a cell-based assay was developed focusing an a better solubilization of odorants. In summary, in a sealed flask, bovine olfactory mucus was incubated in the presence of an odorant (FIG. 3A). It was hereby tested if an odorant would be trapped and solubilized in that fluid. Thereafter, such solubilized odorant was injected onto cultured-cells overexpressing an olfactory receptor. Activation of this receptor could then be followed by conventional assay including fluorescent (FIGS. 3 B and C) and luminescent calcium assays.
For this novel assay, mOR-I7 activation was assessed by octanal. A constant volume of olfactory mucus was incubated in the presence of increasing amount of octanal ranging from 0 to 16 μl of a solution of 1M octanal. After 16 hours incubation at 4° C., bovine olfactory mucus was injected on HEK 293T overexpressing mOR-I7. Calcium flux was followed with Fluo4 on FDSS, a plate reader from Hamamatsu Photonics K.K. (Japan).
Capacity of fraction 4 to fulfil the role of odorant solubilizator was assessed in the newly proposed assay. Screening of 30 odorant molecules (FIG. 5A) was performed on HEK 293T wild type (FIG. 5C) or overexpressing mOR-I7 (FIG. 5B). Fraction 4 was incubated overnight at 4° C. […] These odorants led to at least one fold more activation of HEK 293T overexpressing mOR-I7 than the wild type counterpart. They can be classified into two groups. One group (FIG. 5 E (a) to (e)) gathers molecules that fit the olfactophore 1 depicted in FIG. 5 E (j). They are schematically made of 2 electronegative poles distanced by 6 carbons. They all contain a 6-8 carbon chain ended by an electronegative group as depicted by olfactophore 2 represented in FIG. 5 E (k).
However this fraction 4 contained two major proteins, bOBP and BSA. Thus the results of said Example could in this approach not rule out any implication of BSA into fraction 4 properties. Therefore the capacity of BSA to solubilize and thereof to enhance the efficacy of odorants in the novel cell based olfactory functional assay as described by the present invention has been tested. To be as close as possible to BSA concentration observed in fraction 4. BSA concentration was set up at 5×10^−6 M for the following experiments (marked by an arrow on FIG. 6 G). Fraction 4 and a solution of fatty acid-free BSA were incubated at 4° C. for 16 hours in the presence of increasing volume of 1M octanal. So-incubated solutions were then applied onto HEK 293T wt or overexpressing mOR-I7. Calcium-flux was followed on a plate reader (Hamamatsu Photonics K.K., Japan) with fluo4 as fluorescent dye (FIG. 6 A to F). […] Such phenomenon is usually observed in such fluorescence assay when increasing ligand concentrations are injected. […]

[3] = molecular target: T1, mOR-I7; settings: literature (references); cited from earlier work
[4] = test system: hORL-424; assay: Fluorescent calcium flux assay on HEK 293T overexpressing hORL-424, odorant in assay buffer with or without bovine olfactory mucus; format: cell-based, human
Experimental: FIG. 2: Bovine olfactory mucus enhances hORL-424 activation by citronellal. (A and B) Calcium measurement was performed after activation of hORL-424 with citronellal in the presence of different amount of bovine olfactory mucus. 0 to 10 μl of mucus (0 to 10 μg of total protein) have been added to assay buffer. Calcium flux has been followed on FDSS (Hamamatsu Photonics K.K. plate reader, Japan) using Fluo4 as fluorescent dye. Histograms represent fluorescent signal observed in the presence or in the absence of 10 μl of bovine olfactory mucus. (C) Concentration response curve of HEK 293T overexpressing hORL-424 treated with citronellal. Gray boxes represent values obtained in the presence of bovine olfactory mucus. Calcium flux measurements have been performed on FDSS (Hamamatsu Photonics K.K. plate reader, Japan). (D and E) Traces obtained during single cell calcium imaging after addition of 500 μM octanal on HEK 293T overexpressing mOR-I7 in the absence (D) or in the presence of 10 μl of bovine olfactory mucus (E). Fura2 was used as fluorescent dye. Results are expressed as F340/F380 ratiometric measurement.
as §1
hORL-424, a human olfactory receptor, was overexpressed in HEK 293T, a […] (Hunter). […]

Row | Structure (SMILES) | mOR-I7 activation by cellular cAMP pool [1] | hits / potential ligands of mOR-I7 through the 4 screenings [2] | ligands of mOR-I7 in two independent calcium flux screenings of 30 odorants [2] | hit / potential ligand of mOR-I7 in screening of 30 odorants [2] | also measured
1 | COc1cc(C=O)ccc1O [Vanilline] | did not lead to cAMP synthesis |  |  |  | 
2 | COc1cc(CCC(C)=O)ccc1O [Vanillyl acetone] |  |  |  | potential ligands of mOR-I7 and hits | 
3 | CC(C)=CCCC(C)CC=O (stereo not shown) [citronellal] | mOR-I7 ligands | hits |  | potential ligands of mOR-I7 and hits | improvement of hORL-424 activation on addition of bovine olfactory mucus ([4]; bovine olfactory mucus in assay buffer vs absence, fluo4, 96-well plate): approximately 9 folds; concentration necessary to reach maximum activation of hORL-424 ([4]; conventional assay, no mucus): up to 10 mM; concentration sufficient to reach maximum activation of hORL-424 ([4]; olfactory mucus added in the assay buffer): 0.5 mM; known activation of mOR-I7 [3]: activated specifically
4 | CCCCC(=O)C(C)=O [2,3 heptanedione] |  | hits | consistent | potential ligands of mOR-I7 and hits | 
5 | COCCc1ccc(O)cc1 [4(2-methoxyethyl)phenol] |  |  |  | potential ligands of mOR-I7 | hit / potential ligand of mOR-I7 in screening of 30 odorants ([2]; listed as 4-(2-methoxyethyl)-phenol): hits
6 | CC/C=C\CCCCC=O [cis-6-nonenal] |  |  |  | potential ligands of mOR-I7 | hit / potential ligand of mOR-I7 in screening of 30 odorants ([2]; listed as 6-cis-nonenal): hits

Second part, led by results:

Row | mOR-I7 activation by cellular cAMP pool [1] | hits / potential ligands of mOR-I7 through the 4 screenings [2] | ligands of mOR-I7 in two independent calcium flux screenings of 30 odorants [2] | hit / potential ligand of mOR-I7 in screening of 30 odorants [2] | Structure (SMILES) | also measured
7 | mOR-I7 ligands | hits | consistent |  | CCCCCCC=O [heptanal] | known activation of mOR-I7 [3]: activated specifically
8 |  | hits | consistent | potential ligands of mOR-I7 | CCCCCCCCO [octanol] | hit / potential ligand of mOR-I7 in screening of 30 odorants ([2]; listed as 1-octanol): hits
9 |  |  | consistent | potential ligands of mOR-I7 and hits | CC(C)=CCCC(C)CCO (stereo not shown) [citronellol] | 
10 |  | hits | consistent | potential ligands of mOR-I7 | CCCCCCCO [heptanol] | hit / potential ligand of mOR-I7 in screening of 30 odorants ([2]; listed as 1-heptanol): hits
11 | did not lead to cAMP synthesis |  |  |  | CC(C)C(=O)OCc1ccc2c(c1)OCO2 [piperonyl isobutyrate] | 
